Test results as given in patent US20230217926A1, “SELECTIVE HERBICIDES BASED ON SUBSTITUTED ISOXAZOLIN CARBOXAMIDES AND ISOXADIFEN-ETHYL” (BAYER AKTIENGESELLSCHAFT, priority 2020, published 2023).

What was measured:
ZEAMA Abraxas = test: Tank-mix post-emergence crop damage, greenhouse, visual assessment; format: in vivo, maize; parameters: key to Reduction [Difference]: % injury reduction: damage without minus with safener (0–100% scale); conditions: for HER effect + SAF / Reduction [%] / Reduction [Difference]: Final; for HER effect: no safener, Final assessment
Method: (§1) Seeds of crops (spring wheat, TRZAS; spring barley, HORVS; maize, ZEAMA) were placed in sandy loam soil in peat pots, covered with soil and cultivated in a greenhouse under good growth conditions. Two to three weeks after sowing, the test plants were treated at the 1 to 3-leaf stage. The herbicide/safener active compound combinations according to the invention, formulated as wettable powders or emulsion concentrates, and, in parallel tests, the correspondingly formulated individual active compounds were sprayed onto the green parts of the plants in various dosages using an amount of water of 300 l/ha (converted).
(§2) The pots were returned under good growing conditions in a glasshouse and a visual assessment of herbicidal effects was made at intervals from 1 to 3 weeks after herbicide application (DAT=days after treatment). Assessment was on a percentage basis in comparison with untreated control plants (0%=no injury, 100%=complete kill).
(§3) Reduction[Difference]=herbicide damage without safener−herbicide damage with safener Reduction[%]=(Reduction[Difference]*100)/herbicide damage without safener
b) Plant Species, Variety: ZEAMA Abraxas, Safener (SAF): Isoxadifen-Ethyl

ZEAMA Sileno [1] = test: as above; format: in vivo, maize; parameters: key to Reduction [Difference]: % points: herbicide damage without safener − damage with safener; conditions: for HER effect + SAF / Reduction [%] / Reduction [Difference]: Final; for HER effect: no safener, Final assessment
Method: as §1, §2, §3
a) Plant Species, Variety: ZEAMA Sileno, Safener (SAF): Isoxadifen-Ethyl

TRZAS Triso = test: Safener seed treatment, pre-emergence herbicide, crop damage; format: in vivo, spring wheat; parameters: key to Reduction [Difference]: % crop damage without safener minus % damage with safener; conditions: HER 15 g a.i./ha pre-emergence; for Reduction [%] / Reduction [Difference]: isoxadifen-ethyl 0.25 g a.i./kg seed; for HER effect + SAF: isoxadifen-ethyl seed treatment 0.25 g a.i./kg seed; for HER effect: no safener
Method: (§4) For the safener seed treatment, sufficient seeds of the respective crops (spring wheat, TRZAS; spring barley, HORVS; maize, ZEAMA) were weighed into screw top glass bottles approximately twice the volume of the seeds.
(§5) The specified safeners, formulated as wettable powder (WP) were weighed out so that the specified rates (g a.i./kg seed) would be obtained, dissolved in water (1 ml water per 10 g of seeds), and added to the seeds to produce a slurry.
(§6) The bottles were capped and then placed in an overhead shaker (set at medium speed for ca. 60 minutes) so that the seeds were evenly coated with the slurry. The bottles were uncapped and the seeds were either placed on paper and dried for an interval of 3-4 hours prior to sowing, or directly sown. Seeds were placed in sandy loam soil in pots of a diameter of 7-8 cm, and covered with soil.
(§7) Pre-emergence application of the specified herbicides was done subsequently, on two sets of plants: a) seed treatment with safener, as described above
(§8) The herbicides were formulated as WP and was sprayed onto the soil surface as an aqueous suspension at an equivalent water application rate of 300 l/ha.
(§9) After application, the test plants were kept in the greenhouse under good growth conditions. At intervals up to 4 weeks after application (=28 days after treatment; DAT), % crop damage observed on the treated plants was scored visually in comparison to control plants that had not received any safener or herbicide treatment.
(§10) Values in the table below are mean values of at least 2 replicates.
Reduction[Difference]=herbicide damage without safener−herbicide damage with safener Reduction[%]=(Reduction[Difference]*100)/herbicide damage without safener a) Plant Species, Variety: TRZAS Triso, Safener (SAF): Isoxadifen-Ethyl

ZEAMA Sileno [2] = test: as above; format: in vivo, maize; parameters: key to Reduction [Difference]: % crop damage without safener minus % damage with safener; conditions: HER 80 g a.i./ha pre-emergence; for Reduction [%] / Reduction [Difference]: isoxadifen-ethyl 0.25 g a.i./kg seed; for HER effect + SAF: isoxadifen-ethyl seed treatment 0.25 g a.i./kg seed; for HER effect: no safener
Method: as §4, §5, §6, §7, §8, §9, §10
Reduction[Difference]=herbicide damage without safener−herbicide damage with safener Reduction[%]=(Reduction[Difference]*100)/herbicide damage without safener […]
c) Plant Species, Variety: ZEAMA Sileno, Safener (SAF): Isoxadifen-Ethyl

HORVS Montoya = test: as above; format: in vivo, spring barley; parameters: key to Reduction [Difference]: % crop damage without safener minus % damage with safener; conditions: for Reduction [%] / Reduction [Difference]: isoxadifen-ethyl 0.25 g a.i./kg seed; for HER effect + SAF: isoxadifen-ethyl seed treatment 0.25 g a.i./kg seed; for HER effect: no safener
Method: as §4, §5, §6, §7, §8, §9, §10
Reduction[Difference]=herbicide damage without safener−herbicide damage with safener Reduction[%]=(Reduction[Difference]*100)/herbicide damage without safener b) Plant Species, Variety: HORVS Montoya, Safener (SAF): Isoxadifen-Ethyl

[3] = HER 32 g a.i./ha + isoxadifen-ethyl 100 g a.i./ha
[4] = HER 32 g a.i./ha, isoxadifen-ethyl 100 g a.i./ha
[5] = HER 8 g a.i./ha + isoxadifen-ethyl 50 g a.i./ha
[6] = HER 8 g a.i./ha, isoxadifen-ethyl 50 g a.i./ha
[7] = HER 15 g a.i./ha pre-emergence, 11 DAT (Interim)
[8] = HER 15 g a.i./ha pre-emergence, 21 DAT (Final)
[9] = HER 5 g a.i./ha pre-emergence, 21 DAT (Final)
[10] = HER 2 g a.i./ha, isoxadifen-ethyl 100 g a.i./ha

Row | Compound | HER effect + SAF (ZEAMA Abraxas; [3]) | Reduction [%] (ZEAMA Abraxas; [4]) | Reduction [Difference] (ZEAMA Abraxas; [4]) | HER effect (ZEAMA Abraxas; HER 32 g a.i./ha) | HER effect + SAF (ZEAMA Abraxas; [5]) | Reduction [%] (ZEAMA Abraxas; [6]) | Reduction [Difference] (ZEAMA Abraxas; [6]) | HER effect (ZEAMA Abraxas; HER 8 g a.i./ha) | other results
1 | COC(=O)C1C=CC(NC(=O)C2(C(F)(F)F)CC(c3cc(C)cc(F)c3)=NO2)C1 (mixture of isomers) [Example 1.22] | 0% | 100% | 20 | 20% | – | – | – | – | –
2 | CC1(C(=O)NC2C=CC(C(=O)OCCCl)C2)CC(c2cc(F)cc(F)c2)=NO1 (mixture of isomers) [Example 1.47] | 38% | 39% | 24 | 62% | – | – | – | – | –
3 | C=CC1(C(=O)NC2CC=C(C(=O)OC)C2)CC(c2cc(F)cc(F)c2)=NO1 (mixture of isomers) [Example 1.60] | 57% | 39% | 37 | 94% | 20% | 64% | 35 | 55% | –
4 | C=CC1(C(=O)NC2COC(C(=O)OC)C2)CC(c2cc(C)cc(F)c2)=NO1 (mixture of isomers) [Example 1.71] | 35% | 62% | 56 | 91% | 17% | 71% | 41 | 58% | –
5 | CC1(C(=O)NC2COC(C(=O)OCc3cccc(F)c3)C2)CC(c2cc(F)cc(F)c2)=NO1 (mixture of isomers) [Example 1.76] | – | – | – | – | 33% | 63% | 57 | 90% | –
6 | C=CC1(C(=O)NC2COC(C(=O)OCc3ccc(OC)cc3)C2)CC(c2cc(C)cc(F)c2)=NO1 (mixture of isomers) [Example 1.86] | – | – | – | – | 12% | 63% | 20 | 32% | –
7 | COCCOC(=O)C1C=CC(NC(=O)C2(CCl)CC(c3cc(F)cc(F)c3)=NO2)C1 (stereo not shown) [Example 1.1] | 45% | 53% | 50 | 95% | 20% | 78% | 73 | 93% | –
8 | COCCOC(=O)C1C=CC(NC(=O)C2(C)CC(c3cc(Cl)cc(C#N)c3)=NO2)C1 (stereo not shown) [Example 1.5] | – | – | – | – | – | – | – | – | HER effect + SAF (ZEAMA Sileno [1]; [5]): 18%; Reduction [%] (ZEAMA Sileno [1]; [6]): 79%; Reduction [Difference] (ZEAMA Sileno [1]; [6]): 67; HER effect (ZEAMA Sileno [1]; HER 8 g a.i./ha): 85%; HER effect + SAF (ZEAMA Sileno [1]; [3]): 47%; Reduction [%] (ZEAMA Sileno [1]; [4]): 51%; Reduction [Difference] (ZEAMA Sileno [1]; [4]): 49; HER effect (ZEAMA Sileno [1]; HER 32 g a.i./ha): 96%; Reduction [%] (TRZAS Triso; 11 DAT (Interim)): 80%; Reduction [Difference] (TRZAS Triso; 11 DAT (Interim)): 20; HER effect + SAF (TRZAS Triso; 11 DAT (Interim)): 5%; HER effect (TRZAS Triso; 11 DAT (Interim)): 25%; Reduction [%] (ZEAMA Sileno [2]; 14 DAT): 50%; Reduction [Difference] (ZEAMA Sileno [2]; 14 DAT): 30; Reduction [%] (ZEAMA Sileno [2]; 26 DAT): 56%; Reduction [Difference] (ZEAMA Sileno [2]; 26 DAT): 25; HER effect + SAF (ZEAMA Sileno [2]; 14 DAT): 30%; HER effect + SAF (ZEAMA Sileno [2]; 26 DAT): 20%; HER effect (ZEAMA Sileno [2]; 14 DAT): 60%; HER effect (ZEAMA Sileno [2]; 26 DAT): 45%
9 | CSCCOC(=O)C1C=CC(NC(=O)C2(C(F)(F)F)CC(c3cc(F)cc(F)c3)=NO2)C1 (stereo not shown) [Example 1.7] | – | – | – | – | – | – | – | – | Reduction [%] (TRZAS Triso; 11 DAT (Interim)): 56%; Reduction [Difference] (TRZAS Triso; 11 DAT (Interim)): 25; HER effect + SAF (TRZAS Triso; 11 DAT (Interim)): 20%; HER effect (TRZAS Triso; 11 DAT (Interim)): 45%; Reduction [%] (HORVS Montoya; [7]): 50%; Reduction [Difference] (HORVS Montoya; [7]): 25; Reduction [%] (HORVS Montoya; [8]): 83%; Reduction [Difference] (HORVS Montoya; [8]): 25; HER effect + SAF (HORVS Montoya; [7]): 25%; HER effect + SAF (HORVS Montoya; [8]): 5%; HER effect (HORVS Montoya; [7]): 50%; HER effect (HORVS Montoya; [8]): 30%
10 | CC1(C(=O)NC2C=CC(C(=O)O)C2)CC(c2cc(F)cc(F)c2)=NO1 (stereo not shown) [Example 1.36] | – | – | – | – | – | – | – | – | Reduction [%] (TRZAS Triso; 11 DAT (Interim)): 29%; Reduction [Difference] (TRZAS Triso; 11 DAT (Interim)): 20; Reduction [%] (TRZAS Triso; 21 DAT (Final)): 64%; Reduction [Difference] (TRZAS Triso; 21 DAT (Final)): 45; HER effect + SAF (TRZAS Triso; 11 DAT (Interim)): 50%; HER effect + SAF (TRZAS Triso; 21 DAT (Final)): 25%; HER effect (TRZAS Triso; 11 DAT (Interim)): 70%; HER effect (TRZAS Triso; 21 DAT (Final)): 70%; Reduction [%] (HORVS Montoya; [9]): 44%; Reduction [Difference] (HORVS Montoya; [9]): 20; HER effect + SAF (HORVS Montoya; [9]): 25%; HER effect (HORVS Montoya; [9]): 45%; Reduction [%] (HORVS Montoya; [8]): 43%; Reduction [Difference] (HORVS Montoya; [8]): 30; HER effect + SAF (HORVS Montoya; [8]): 40%; HER effect (HORVS Montoya; [8]): 70%
11 | C=CC1(C(=O)NC2C=CC(C(=O)O)C2)CC(c2cc(F)cc(F)c2)=NO1 (stereo not shown) [Example 1.58] | 15% | 84% | 80 | 95% | 17% | 73% | 45 | 62% | –
12 | C=CC1(C(=O)NC2C=C(C(=O)OCCOC)OC2)CC(c2cc(C)cc(F)c2)=NO1 (stereo not shown) [Example 1.89] | 17% | 62% | 28 | 45% | 3% | 90% | 27 | 30% | –
13 | C=CC1(C(=O)NC2C=C(C(=O)OC)OC2)CC(c2cc(C)cc(C)c2)=NO1 (stereo not shown) [Example 1.90] | – | – | – | – | – | – | – | – | HER effect + SAF (ZEAMA Abraxas; HER 2 g a.i./ha + isoxadifen-ethyl 100 g a.i./ha): 5%; Reduction [%] (ZEAMA Abraxas; [10]): 80%; Reduction [Difference] (ZEAMA Abraxas; [10]): 20; HER effect (ZEAMA Abraxas; HER 2 g a.i./ha): 25%
14 | C=CC1(C(=O)NC2C=C(C(=O)OCC#N)OC2)CC(c2cc(F)cc(F)c2)=NO1 (stereo not shown) [Example 1.91] | – | – | – | – | – | – | – | – | Reduction [%] (TRZAS Triso; 21 DAT (Final)): 75%; Reduction [Difference] (TRZAS Triso; 21 DAT (Final)): 30; HER effect + SAF (TRZAS Triso; 21 DAT (Final)): 10%; HER effect (TRZAS Triso; 21 DAT (Final)): 40%
